Data as given in patent publication US20190345146A1, “NITROGEN CONTAINING BICYCLIC DERIVATIVES FOR TREATING PAIN AND PAIN RELATED CONDITIONS” (ESTEVE PHARMACEUTICALS, S.A., priority 2016, published 2019).
Where two headings read alike, the source gives them in different places.

Legend:
[1] = target: human norepinephrine transporter (NET) (Homo sapiens, UniProt P23975); test: Binding assay to human norepinephrine transporter (NET) ([3H]-Nisoxetin); conditions: Table 2, dual compounds, human NET enriched membranes, read-out: Ki(nM) NET Hum
human norepinephrine transporter (NET), sequence (P23975 whole entry): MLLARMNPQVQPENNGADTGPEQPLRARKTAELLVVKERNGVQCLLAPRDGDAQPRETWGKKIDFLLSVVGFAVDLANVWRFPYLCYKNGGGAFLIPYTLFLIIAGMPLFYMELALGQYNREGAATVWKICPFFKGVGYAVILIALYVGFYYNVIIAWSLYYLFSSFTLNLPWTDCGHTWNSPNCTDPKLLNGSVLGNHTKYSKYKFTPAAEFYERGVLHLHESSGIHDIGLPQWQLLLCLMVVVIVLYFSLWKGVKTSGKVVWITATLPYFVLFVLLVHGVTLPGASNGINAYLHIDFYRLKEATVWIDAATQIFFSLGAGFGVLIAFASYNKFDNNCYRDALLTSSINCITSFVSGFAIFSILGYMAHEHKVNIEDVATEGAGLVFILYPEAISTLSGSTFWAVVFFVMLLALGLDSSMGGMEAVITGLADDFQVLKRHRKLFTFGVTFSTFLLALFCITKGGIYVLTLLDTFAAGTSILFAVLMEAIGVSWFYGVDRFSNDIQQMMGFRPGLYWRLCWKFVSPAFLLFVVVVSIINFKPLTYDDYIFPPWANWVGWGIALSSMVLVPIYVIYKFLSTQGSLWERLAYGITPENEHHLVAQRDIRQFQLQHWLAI
Description: (§1) Readings were performed in a Trilux 1450 Microbeta radioactive counter (Perkin Elmer). • Binding assay to human norepinephrine transporter (NET).
Human norepinephrine transporter (NET) enriched membranes (5 μg) were incubated with 5 nM of radiolabeled [3H]-Nisoxetin in assay buffer containing 50 mM Tris-HCl, 120 mM NaCl, 5 mM KCl, pH 7.4.
NSB (non specific binding) was measured by adding 10 μM desipramine. The binding of the test compound was measured at five different concentrations. After 60 min incubation at 4° C., binding reaction was terminated by filtering through Multiscreen GF/C (Millipore) presoaked in 0.5% polyethyleneimine in Vacuum Manifold Station, followed by 3 washes with ice-cold filtration buffer containing 50 mM Tris-HCl, 0.9% NaCl, pH 7.4.
(§2) Filter plates were dried at 60° C. for 1 h and 30 μl of scintillation cocktail were added to each well before radioactivity reading.
Readings were performed in a Trilux 1450 Microbeta radioactive counter (Perkin Elmer).

[2] = target: human α2δ-1 subunit of Cav2.2 calcium channel (Homo sapiens, UniProt P54289); test: Binding assay to human α2δ-1 subunit of Cav2.2 calcium channel ([3H]-Gabapentin); conditions: read-out: Ki(nM) alpha2delta Hum
human α2δ-1 subunit of Cav2.2 calcium channel, sequence (P54289 25-1103): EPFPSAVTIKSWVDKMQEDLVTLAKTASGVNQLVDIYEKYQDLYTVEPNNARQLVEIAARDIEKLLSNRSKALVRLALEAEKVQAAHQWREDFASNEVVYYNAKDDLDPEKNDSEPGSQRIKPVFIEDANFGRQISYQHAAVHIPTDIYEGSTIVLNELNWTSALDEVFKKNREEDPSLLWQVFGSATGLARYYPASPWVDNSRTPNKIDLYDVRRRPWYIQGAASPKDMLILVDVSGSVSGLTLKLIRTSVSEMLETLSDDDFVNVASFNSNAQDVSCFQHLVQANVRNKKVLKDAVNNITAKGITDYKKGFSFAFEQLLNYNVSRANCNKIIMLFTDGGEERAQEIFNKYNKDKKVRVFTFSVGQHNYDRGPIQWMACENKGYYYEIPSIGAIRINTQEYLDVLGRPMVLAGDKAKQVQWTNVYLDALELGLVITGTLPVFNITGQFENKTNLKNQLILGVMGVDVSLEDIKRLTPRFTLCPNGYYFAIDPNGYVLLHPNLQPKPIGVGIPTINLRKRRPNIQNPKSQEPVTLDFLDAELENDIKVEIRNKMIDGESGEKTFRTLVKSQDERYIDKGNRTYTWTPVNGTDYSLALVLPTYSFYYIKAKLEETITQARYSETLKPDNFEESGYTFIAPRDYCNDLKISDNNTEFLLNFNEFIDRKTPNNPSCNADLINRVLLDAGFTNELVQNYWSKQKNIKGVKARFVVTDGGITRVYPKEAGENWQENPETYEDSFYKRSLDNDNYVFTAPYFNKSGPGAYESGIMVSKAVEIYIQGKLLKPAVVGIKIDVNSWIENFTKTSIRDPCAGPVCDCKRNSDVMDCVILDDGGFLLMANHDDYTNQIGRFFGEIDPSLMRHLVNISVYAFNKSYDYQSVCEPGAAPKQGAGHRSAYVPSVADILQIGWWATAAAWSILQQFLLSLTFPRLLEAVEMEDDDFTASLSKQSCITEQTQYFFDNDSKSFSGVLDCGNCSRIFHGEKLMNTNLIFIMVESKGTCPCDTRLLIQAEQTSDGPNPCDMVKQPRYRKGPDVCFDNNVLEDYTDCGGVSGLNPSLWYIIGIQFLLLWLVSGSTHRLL
Description: • Binding assay to human α2δ-1 subunit of Cav2.2 calcium channel.
Human α2δ-1 enriched membranes (2.5 μg) were incubated with 15 nM of radiolabeled [3H]-Gabapentin in assay buffer containing Hepes-KOH 10 mM, pH 7.4.
NSB (non specific binding) was measured by adding 10 μM pregabalin. The binding of the test compound was measured at five different concentrations. After 60 min of incubation at 27° C., the binding reaction was terminated by filtering through Multiscreen GF/C (Millipore) presoaked in 0.5% polyethyleneimine in Vacuum Manifold Station, followed by 3 washes with ice-cold filtration buffer containing 50 mM Tris-HCl, pH 7.4.
as §2, §1

Ki [1]: 500 to 1000 nM
Ki ([2]; Table 1, human α2δ-1 enriched membranes): 100 to 500 nM
Ki ([2]; Table 2, dual compounds, human α2δ-1 enriched membranes): 100 to 500 nM
Structure (SMILES): CNCCC(Oc1cccc2c1CCN(CC(F)F)C2)c1cccs1 (stereo not drawn) [Example 3, 3-((2-(2,2-difluoroethyl)-1,2,3,4-tetrahydroisoquinolin-5-yl)oxy)-N-methyl-3-(thiophen-2-yl)propan-1-amine]
